{"source": "ChEMBL document CHEMBL1201862", "about": "“PubChem BioAssay data set” (2004)", "key": {"[1]": {"assay": "fluconazole-exposed Candida albicans growth modulators – fluorescence, retest, confirmation (AID 2467)", "format": "functional, cell-based"}, "[2]": {"assay": "Luminescence Cell-Based Dose Retest to Confirm Inhibitors of Cancer Stem Cells. [Related pubchem assays (depositor defined):AID2717, AID2721]", "format": "functional", "conditions": "Homo sapiens"}, "[3]": {"molecular_target": "T1, Heat shock factor protein 1 (Mus musculus, UniProt P38532)", "T1 sequence (P38532 whole entry)": "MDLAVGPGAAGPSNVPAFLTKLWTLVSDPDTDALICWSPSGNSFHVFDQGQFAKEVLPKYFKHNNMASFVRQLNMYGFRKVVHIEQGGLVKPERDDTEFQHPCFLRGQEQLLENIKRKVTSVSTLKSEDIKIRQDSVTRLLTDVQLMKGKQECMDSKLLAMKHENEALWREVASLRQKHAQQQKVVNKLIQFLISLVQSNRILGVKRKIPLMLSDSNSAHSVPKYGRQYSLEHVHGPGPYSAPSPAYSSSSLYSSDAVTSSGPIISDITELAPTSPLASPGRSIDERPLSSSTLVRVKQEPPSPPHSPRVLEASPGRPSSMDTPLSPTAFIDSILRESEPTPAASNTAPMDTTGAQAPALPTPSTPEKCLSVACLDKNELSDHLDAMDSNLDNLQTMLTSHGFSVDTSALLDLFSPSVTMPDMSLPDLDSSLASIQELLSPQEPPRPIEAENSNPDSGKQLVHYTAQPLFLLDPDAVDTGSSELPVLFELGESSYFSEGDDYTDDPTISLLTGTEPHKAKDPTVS", "assay": "enhancement of HSF1-driven luciferase signal – cell-based, NIH3T3, luminescence, dose retest, confirmation (AID 435004);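 also: stress induced by proteasome inhibitor MG132 added 30 min after compound; actives raise luminescence as potentiators of the MG132 stress response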", "format": "functional"}, "[4]": {"assay": "NIH-3T3 fibroblast cytotoxicity, dose response, cytotoxicity control, cell-based, fluorescence, Alamar Blue, secondary assay (AID 2327);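 also: NIH-3T3 mouse fibroblasts cultured with fluconazole at 8 µg/mL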", "format": "functional"}, "[5]": {"molecular_target": "T1, Heat shock factor protein 1", "assay": "decrease of HSF1-responsive luciferase luminescence – cell-based, NIH3T3, dose retest, confirmation (AID 2382);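 also: NIH3T3 fibroblasts with HSF1-driven luciferase reporter stressed by proteasome inhibitor MG132; luminescence from HSF1-driven luciferase expression after 8 hours of MG132 stress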", "format": "functional"}, "[6]": {"system": "Streptococcus", "assay": "GAS UMAA2166 growth inhibition – luminescence, BacTiterGlo, counter-screen for streptokinase expression inhibitor project, dose response (AID 1915);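 also: potency for reduction of bacterial viability or growth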", "format": "functional, organism-based"}, "[7]": {"molecular_target": "T2, Streptokinase A (Streptococcus pyogenes serotype M1, UniProt P10520)", "T2 sequence (P10520 whole entry)": "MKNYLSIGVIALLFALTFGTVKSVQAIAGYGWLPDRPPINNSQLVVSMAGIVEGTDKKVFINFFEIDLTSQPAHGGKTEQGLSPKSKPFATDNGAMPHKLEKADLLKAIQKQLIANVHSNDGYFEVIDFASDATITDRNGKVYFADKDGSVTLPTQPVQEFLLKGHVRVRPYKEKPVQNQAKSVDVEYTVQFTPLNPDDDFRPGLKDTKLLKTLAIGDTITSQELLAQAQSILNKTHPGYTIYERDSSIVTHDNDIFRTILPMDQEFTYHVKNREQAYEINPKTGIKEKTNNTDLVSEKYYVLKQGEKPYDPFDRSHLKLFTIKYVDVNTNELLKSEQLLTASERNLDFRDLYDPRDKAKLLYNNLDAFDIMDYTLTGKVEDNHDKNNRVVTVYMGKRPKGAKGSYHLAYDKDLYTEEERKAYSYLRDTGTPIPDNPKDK", "assay": "viability-normalized secreted streptokinase activity reduction – plasminogen activation absorbance, OD405, dose response (AID 1914)", "format": "functional, Streptococcus pyogenes M1 GAS"}, "[8]": {"system": "Streptococcus sp. 'group A'", "assay": "Streptococcus pyogenes SK(-)GAS viability under kanamycin – luminescence, BacTiterGlo, confirmation, counter-screen for streptokinase expression inhibitor project, dose response (AID 1900)", "format": "functional, organism-based"}, "[9]": {"assay": "Luminescence Cell-Based Dose Response HTS to Identify Activators of Luciferase Translation or Activity in H4 […] Cells. [Related pubchem assays: 1829 (Project Summary), 1814 (Primary HTS)]", "format": "functional"}, "[10]": {"system": "H4", "assay": "Luminescence Cell-Based Dose Response HTS to Identify Activators of 5'UTR Stem-Loop Driven Prion Protein mRNA Translation in H4 Neuroglioblastoma Cells. [Related pubchem assays: 1829 (Project Summary), 1814 (Primary HTS)]", "format": "functional", "conditions": "Homo sapiens"}, "[11]": {"assay": "reduction of Shn3 3'UTR-driven luciferase in osteoblasts – cell-based, Clone20 osteoblasts, firefly luciferase, cherry-picked, dose response (AID 624132)", "format": "functional"}, "[12]": {"assay": "non-specific 3'UTR reporter inhibition in Clone20-Shn3RL – cell-based, Renilla luciferase, cherry-picked, counter-screen for Shn3 inhibitor project, dose response (AID 624133)", "format": "functional"}, "[13]": {"assay": "loss of viability in HepG2 cells – cell-based, CellTiter-Glo, cherry-picked, cytotoxicity control for Shn3 inhibitor project, dose response (AID 624134)", "format": "functional"}}, "note": "Activity calls are given as the source filed them. Rule as the data show it, for most assays here: actives have a measured EC50 and inactives only a lower limit.", "data": [{"compound": "Cc1ccc(NNC(=O)c2cccs2)cc1Cl", "values": [{"measurement": "EC50", "setting": "[1]", "value": "1.62 µM (active)"}, {"measurement": "AC50", "setting": "[2]", "value": "1.96 µM (active)"}, {"measurement": "EC50", "setting": "[3]", "value": "> 260 µM (inactive)"}, {"measurement": "EC50", "setting": "[4]", "value": "29.6 µM (active)"}]}, {"compound": "CC1CC1C(=O)OCC(=O)NCc1ccc(Cl)cc1Cl", "note": "(stereo unspecified)", "values": [{"measurement": "EC50", "setting": "[5]", "value": "> 195 µM (not active)"}]}, {"compound": "CCc1nnc(NC(=O)Cn2ccc(C(F)(F)F)n2)s1", "values": [{"measurement": "EC50", "setting": "[1]", "value": "> 38 µM (not active)"}, {"measurement": "EC50", "setting": "[4]", "value": "> 150 µM (inactive)"}]}, {"compound": "COc1ccc(S(=O)(=O)N2CCOC2CNC(=O)C(=O)NCc2ccccc2Cl)cc1", "note": "(stereo unspecified)", "values": [{"measurement": "EC50", "setting": "[6]", "value": "> 150 µM (not active)"}, {"measurement": "EC50", "setting": "[7]", "value": "> 150 µM (not active)"}, {"measurement": "EC50", "setting": "[8]", "value": "> 150 µM (not active)"}]}, {"compound": "CC1(C)CC(N/C=C2/C(=O)N(Cc3ccc4c(c3)OCO4)C(=O)c3ccccc32)CC(C)(C)N1", "values": [{"measurement": "EC50", "setting": "[1]", "value": "5.68 µM (active)"}, {"measurement": "EC50", "setting": "[4]", "value": "> 160 µM (inactive)"}]}, {"compound": "Cc1csc(NC(=O)Nc2ccccc2[N+](=O)[O-])n1", "values": [{"measurement": "EC50", "setting": "[9]", "value": "12.5 µM (active)"}, {"measurement": "EC50", "setting": "[10]", "value": "94 µM (active)"}]}, {"compound": "COC(=O)C1=C(c2ccc(OCc3ccccc3)cc2)C[C@@H]2CC[C@H]1N2C(=O)NCc1ccc(OC)c(OC)c1", "values": [{"measurement": "AC50", "setting": "[11]", "value": "19.7 µM (active)"}, {"measurement": "AC50", "setting": "[12]", "value": "30.1 µM (active)"}]}, {"compound": "O=C(CN1CCCCCC1)Nc1ccccc1Oc1ccccc1", "values": [{"measurement": "AC50", "setting": "[2]", "value": "0.493 µM (active)"}]}, {"compound": "COc1cc(C(=O)OCc2cc(=O)c(O)co2)ccc1OC(F)F", "values": [{"measurement": "EC50", "setting": "[1]", "value": "> 38 µM (not active)"}, {"measurement": "EC50", "setting": "[4]", "value": "> 160 µM (inactive)"}]}, {"compound": "COc1ccc(C(=O)c2coc3ccc(O)c(CN(C)C)c23)cc1", "values": [{"measurement": "EC50", "setting": "[3]", "value": "> 260 µM (inactive)"}]}, {"compound": "O=[N+]([O-])c1cccc(-c2nnc(CNC3CC3)o2)c1", "values": [{"measurement": "EC50", "setting": "[3]", "value": "> 260 µM (inactive)"}]}, {"compound": "COc1ccc(NC(=O)c2nn(C)c(=O)c3ccccc23)cc1S(=O)(=O)Nc1ccccc1Cl", "values": [{"measurement": "EC50", "setting": "[3]", "value": "18.4 µM (active)"}]}, {"compound": "Cc1ccc(CN2CN(S(=O)(=O)c3cccs3)c3nc4ccccc4nc32)cc1", "values": [{"measurement": "EC50", "setting": "[6]", "value": "63.7 µM (active)"}, {"measurement": "EC50", "setting": "[7]", "value": "> 150 µM (not active)"}, {"measurement": "EC50", "setting": "[8]", "value": "56 µM (active)"}]}, {"compound": "O=C(C1CCC(CNS(=O)(=O)c2cccs2)CC1)N1CCN(c2ccc(Cl)cc2)CC1", "note": "(stereo unspecified)", "values": [{"measurement": "AC50", "setting": "[13]", "value": "2.76 µM (active)"}, {"measurement": "AC50", "setting": "[11]", "value": "1.61 µM (active)"}, {"measurement": "AC50", "setting": "[12]", "value": "16 µM (active)"}]}, {"compound": "Cc1nc(C(=O)NNC(=O)c2cccc(Cl)c2)c(C(F)(F)F)o1", "values": [{"measurement": "EC50", "setting": "[5]", "value": "> 195 µM (not active)"}]}, {"compound": "CN(Cc1ccc(N(C)C)cc1)C(=O)c1cc2ccccc2o1", "values": [{"measurement": "EC50", "setting": "[6]", "value": "> 150 µM (not active)"}, {"measurement": "EC50", "setting": "[7]", "value": "> 150 µM (not active)"}, {"measurement": "EC50", "setting": "[8]", "value": "> 150 µM (not active)"}]}, {"compound": "CCCOc1ccc(C(=O)NNC(=S)NC(=O)c2ccccc2[N+](=O)[O-])cc1", "values": [{"measurement": "EC50", "setting": "[6]", "value": "10.8 µM (active)"}, {"measurement": "EC50", "setting": "[7]", "value": "> 150 µM (not active)"}, {"measurement": "EC50", "setting": "[8]", "value": "2.79 µM (active)"}]}, {"compound": "COC(=O)c1ccc(CNC(=O)COC(=O)COc2ccc(OC)cc2)cc1", "values": [{"measurement": "EC50", "setting": "[5]", "value": "> 195 µM (not active)"}]}, {"compound": "CCN(CC)C(S)=Nc1ccc(Cl)c(Cl)c1", "values": [{"measurement": "EC50", "setting": "[3]", "value": "> 260 µM (inactive)"}]}, {"compound": "Cc1ccc(NC(=O)Cn2c(CCC(=O)O)ccc2-c2cccs2)cc1", "values": [{"measurement": "EC50", "setting": "[3]", "value": "> 260 µM (inactive)"}]}, {"compound": "COc1ccc(O)c(CN2CCC(n3nccc3NC(=O)CCOc3ccccc3)CC2)c1", "values": [{"measurement": "EC50", "setting": "[6]", "value": "> 150 µM (not active)"}, {"measurement": "EC50", "setting": "[7]", "value": "> 150 µM (not active)"}, {"measurement": "EC50", "setting": "[8]", "value": "> 150 µM (not active)"}]}, {"compound": "Cn1c(CO)cnc1SCC(=O)c1ccc(Cl)cc1", "values": [{"measurement": "EC50", "setting": "[3]", "value": "> 260 µM (inactive)"}]}, {"compound": "CC(=O)Oc1ccc(-c2ccc(C(=O)Nc3cccc(S(=O)(=O)N4CCOCC4)c3)cc2)cc1", "values": [{"measurement": "AC50", "setting": "[2]", "value": "1.52 µM (active)"}]}, {"compound": "CCCc1cc(O)nc(SCc2csc(-c3ccccc3)n2)n1", "values": [{"measurement": "EC50", "setting": "[1]", "value": "2.81 µM (active)"}, {"measurement": "EC50", "setting": "[4]", "value": "> 160 µM (inactive)"}]}, {"compound": "CCCc1nc(NC2CCCCC2)c(C#N)c2c1COC(C)(C)C2", "values": [{"measurement": "AC50", "setting": "[2]", "value": "6.71 µM (active)"}]}]}
